Test results reported in PMC7594867 (Journal of Enzyme Inhibition and Medicinal Chemistry, 2020).
Where two headings read alike, the source gives them in different places.

How the values were obtained:
[1] = test system: MCF-7; assay: MTT cytotoxicity assay, MCF-7; assay type: cell-based; details: for IC50: Homo sapiens, MCF7, 72 h, read-out: IC50 ± SD, MCF-7; for Selectivity index, MCF-7: IC50 MRC-5 / IC50 MCF-7
[2] = test system: A2780; assay: MTT cytotoxicity assay, A2780; assay type: cell-based; details: for IC50: Homo sapiens, A2780, 72 h, read-out: IC50 ± SD, A2780; for Selectivity index, A2780: IC50 MRC-5 / IC50 A2780
[3] = test system: HT29; assay: MTT cytotoxicity assay, HT29; assay type: cell-based; details: for IC50: Homo sapiens, HT-29, 72 h, read-out: IC50 ± SD, HT29; for Selectivity index, HT29: IC50 MRC-5 / IC50 HT29
[4] = test system: normal human foetal lung fibroblast (MRC-5); assay: MTT cytotoxicity assay, normal MRC-5 cells; assay type: cell-based; details: MRC5, 72 h, read-out: IC50 (µM ± SD) MRC-5
[5] = test system: MCF-7, A2780, and HT29 cell lines; assay: MTT cytotoxicity assay, three cancer cell lines taken together; assay type: cell-based
[6] = test system: MCF-7 cells; assay: Annexin V-FITC/PI staining apoptosis assay; assay type: cell-based; details: MCF-7, 24 h, 1 µM; control 0%
[7] = test system: MCF-7 cells; assay: Cell cycle analysis; assay type: cell-based; details: for effect on cell cycle: MCF-7, 24 h, 1, 5, 10 µM; for number of cells in the G1 cell-cycle phase: MCF-7, 24 h, highest increase, concentration not given
[8] = target: CDK-2 (Homo sapiens, UniProt P24941); assay: CDK-2 inhibition, ADP-Glo kinase assay; assay type: biochemical
[9] = 72 h, read-out: IC50, range over the three cancer cell lines

| SMILES | IC50 [1] [nM] | Selectivity index, MCF-7 [1] | IC50 [2] [nM] | Selectivity index, A2780 [2] | IC50 [3] [nM] | Selectivity index, HT29 [3] | IC50 [4] [µM] | IC50 ([5]; read-out: Average IC50) [nM] | apoptotic events [6] [%] | effect on cell cycle [7] | number of cells in the G1 cell-cycle phase [7] [%] | IC50 [8] [nM] | IC50 [5, 9] [nM] | Selectivity index, range over the three cell lines ([5]; IC50 MRC-5 / IC50 cancer cell line) |
| --- | --- | --- | --- | --- | --- | --- | --- | --- | --- | --- | --- | --- | --- | --- |
| COc1ccc(NC(=O)Nc2c(C#N)c3n(c2C(=O)Nc2ccccc2)CCC3)cc1 [Compound 17a, 7-Cyano-6-(3-(4-methoxyphenyl)ureido)-N-phenyl-2,3-dihydro-1H-pyrrolizine-5-carboxamide] | 900 ± 110 | 2.56 | 440 ± 30 | 5.23 | 5290 ± 1510 | 0.43 | 2.3 ± 0.15 | 2210 |  |  |  |  |  |  |
| Cc1ccc(NC(=O)c2c(NC(=O)Nc3ccc(F)cc3)c(C#N)c3n2CCC3)cc1 [Compound 18b, 7-Cyano-6-(3-(4-fluorophenyl)ureido)-N-(p-tolyl)-2,3-dihydro-1H-pyrrolizine-5-carboxamide] | 190 ± 20 | 7.68 | 970 ± 140 | 1.51 | 9710 ± 2250 | 0.15 | 1.46 ± 0.42 | 3620 | 20 | G1 -S cell cycle arrest | 53 | 115 ± 3.2 |  |  |
| COc1ccc(NC(=O)Nc2c(C#N)c3n(c2C(=O)Nc2ccc(C)cc2)CCC3)cc1 [Compound 17b, 7-Cyano-6-(3-(4-methoxyphenyl)ureido)-N-(p-tolyl)-2,3-dihydro-1H-pyrrolizine-5-carboxamide] | 2850 ± 310 | 2.18 | 420 ± 70 | 14.76 | 1440 ± 170 | 4.31 | 6.2 ± 0.88 | 1570 |  |  |  |  |  |  |
| CCCCCCNC(=O)Nc1c(C#N)c2n(c1C(=O)Nc1ccccc1)CCC2 [Compound 16a, 7-Cyano-6-(3-hexylureido)-N-phenyl-2,3-dihydro-1H-pyrrolizine-5-carboxamide] | 590 ± 10 | 20.10 | 350 ± 180 | 33.89 | 850 ± 70 | 13.95 | 11.9 ± 0.87 | 600 |  |  |  |  | 350 to 850 | 13.95–33.89 |
| CCCCCCNC(=O)Nc1c(C#N)c2n(c1C(=O)Nc1ccc(Cl)cc1)CCC2 [Compound 16c, N-(4-Chlorophenyl)-7-cyano-6-(3-hexylureido)-2,3-dihydro-1H-pyrrolizine-5-carboxamide] | 34100 ± 4610 | 0.02 | 530 ± 100 | 1.42 | 3100 ± 100 | 0.24 | 0.75 ± 0.14 | 12600 |  |  |  |  |  |  |
| CS(=O)(=O)CCNCc1ccc(-c2ccc3ncnc(Nc4ccc(OCc5cccc(F)c5)c(Cl)c4)c3c2)o1 [Lapatinib, lapatinib, reference compound] | 6770 ± 1160 | 1.00 | 10500 ± 760 | 0.64 | 12500 ± 1270 | 0.54 | 6.74 ± 1.22 | 9920 |  |  |  |  | 6770 to 12500 |  |
| N#Cc1c(NC(=O)Nc2ccc(F)cc2)c(C(=O)Nc2ccccc2)n2c1CCC2 [Compound 18a, 7-Cyano-6-(3-(4-fluorophenyl)ureido)-N-phenyl-2,3-dihydro-1H-pyrrolizine-5-carboxamide] | 10760 ± 70 | 0.99 | 10600 ± 2830 | 1.01 | 9130 ± 850 | 1.17 | 10.7 ± 0.61 | 10200 |  |  |  |  |  |  |
| N#Cc1c(NC(=O)Nc2cccc3ccccc23)c(C(=O)Nc2ccccc2)n2c1CCC2 [Compound 19a, 7-Cyano-6-(3-(naphthalen-1-yl)ureido)-N-phenyl-2,3-dihydro-1H-pyrrolizine-5-carboxamide] | 400 ± 420 | 6.68 | 320 ± 170 | 8.34 | 200 ± 10 | 13.35 | 2.67 ± 0.37 | 310 |  | G1 -S cell cycle arrest | 70 | 25.5 ± 1.7 |  |  |
| Cc1ccc(NC(=O)c2c(NC(=S)Nc3cccc4ccccc34)c(C#N)c3n2CCC3)cc1 [Compound 20b, 7-Cyano-6-(3-(naphthalen-1-yl)thioureido)-N-(p-tolyl)-2,3-dihydro-1H-pyrrolizine-5-carboxamide] | 4970 ± 420 | 0.40 | 2040 ± 950 | 0.98 | 3830 ± 580 | 0.52 | 2 ± 0.75 | 3610 |  |  |  |  |  |  |
| N#Cc1c(NC(=O)Nc2ccc(F)cc2)c(C(=O)Nc2ccc(Cl)cc2)n2c1CCC2 [Compound 18c, N-(4-Chlorophenyl)-7-cyano-6-(3-(4-fluorophenyl)ureido)-2,3-dihydro-1H-pyrrolizine-5-carboxamide] | 290 ± 190 | 0.34 | 210 ± 100 | 0.48 | 1380 ± 20 | 0.07 | 0.1 ± 0.01 | 630 |  |  |  |  |  |  |
| CCCCCCNC(=O)Nc1c(C#N)c2n(c1C(=O)Nc1ccc(C)cc1)CCC2 [Compound 16b, 7-Cyano-6-(3-hexylureido)-N-(p-tolyl)-2,3-dihydro-1H-pyrrolizine-5-carboxamide] | 1170 ± 310 | 2.26 | 230 ± 40 | 11.52 | 1560 ± 140 | 1.70 | 2.65 ± 0.29 | 990 |  |  |  |  |  |  |
| Cc1ccc(NC(=O)c2c(NC(=O)Nc3cccc4ccccc34)c(C#N)c3n2CCC3)cc1 [Compound 19b, 7-Cyano-6-(3-(naphthalen-1-yl)ureido)-N-(p-tolyl)-2,3-dihydro-1H-pyrrolizine-5-carboxamide] | 440 ± 90 | 3.50 | 5390 ± 1130 | 0.29 | 680 ± 140 | 2.26 | 1.54 ± 0.2 | 2170 |  |  |  |  |  |  |
| N#Cc1c(NC(=S)Nc2cccc3ccccc23)c(C(=O)Nc2ccc(Cl)cc2)n2c1CCC2 [Compound 20c, N-(4-chlorophenyl)-7-cyano-6-(3-(naphthalen-1-yl)thioureido)-2,3-dihydro-1H-pyrrolizine-5-carboxamide] | 1760 ± 950 | 1.66 | 2810 ± 980 | 1.04 | 3670 ± 1650 | 0.80 | 2.92 ± 0.6 | 2750 |  |  |  |  |  |  |
| COc1ccc(NC(=O)Nc2c(C#N)c3n(c2C(=O)Nc2ccc(Cl)cc2)CCC3)cc1 [Compound 17c, N-(4-Chlorophenyl)-7-cyano-6-(3-(4-methoxyphenyl)ureido)-2,3-dihydro-1H-pyrrolizine-5-carboxamide] | 3360 ± 830 | 1.13 | 540 ± 20 | 7.04 | 420 ± 160 | 9.05 | 3.8 ± 0.25 | 1440 |  |  |  |  |  |  |
| N#Cc1c(NC(=O)Nc2cccc3ccccc23)c(C(=O)Nc2ccc(Cl)cc2)n2c1CCC2 [Compound 19c, N-(4-Chlorophenyl)-7-cyano-6-(3-(naphthalen-1-yl)ureido)-2,3-dihydro-1H-pyrrolizine-5-carboxamide] | 1270 ± 10 | 2.11 | 3070 ± 1500 | 0.87 | 2560 ± 700 | 1.05 | 2.68 ± 0.37 | 2300 |  |  |  |  |  |  |
